The target of data set [1] is T1, TPMT (Homo sapiens, UniProt P51580).
T1 construct: T84 cDNA transiently expressed in COS-1 cells, plus native human kidney 100,000×g supernatant, partially purified kidney Peak I and T84 cell enzyme
T1 sequence (P51580 1-245): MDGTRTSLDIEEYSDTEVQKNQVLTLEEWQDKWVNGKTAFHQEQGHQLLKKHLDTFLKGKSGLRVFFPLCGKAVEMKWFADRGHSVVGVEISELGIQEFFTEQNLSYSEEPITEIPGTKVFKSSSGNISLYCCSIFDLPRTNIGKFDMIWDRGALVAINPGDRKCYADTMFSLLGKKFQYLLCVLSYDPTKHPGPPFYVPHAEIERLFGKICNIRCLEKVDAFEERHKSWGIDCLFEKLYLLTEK
In words: Inhibition of TPMT, all sources of enzyme (summary in words). Type of data set: biochemical. An excerpt: (§1) Finally, the response of the TPMT expressed in COS-1 cells to a panel of methyltransferase inhibitors and ions was compared with that of TPMT activity in human kidney 100,000×g supernatant, partially purified human kidney Peak I TPMT and T84 cell TPMT (Table 3).
As shown by the data in Table 3, the results were nearly identical for all sources of enzyme and each activity was inhibited by the TPMT reaction products, Ado-Hcy and 6-MMP. However, the enzyme was not affected by inhibitors of other methyltransferase enzymes.

Data set [2] concerns the target T2, human kidney TPMT Peak I (Homo sapiens, UniProt P51580).
T2 construct: Human renal tissue contains two isoforms of TPMT, Peak I and Peak II, that can be separated by DEAE ion exchange chromatography; from tissue; host or cells: human kidney, DEAE Peak I, gel filtration
T2 sequence (P51580 1-245): T1 sequence (P51580 1-245)
The data set is described as follows: Panel of methyltransferase inhibitors and ions, human kidney Peak I TPMT. Type of data set: biochemical.
Excerpt: Human renal tissue contains two isoforms of TPMT, Peak I and Peak II, that can be separated by DEAE ion exchange chromatography as reported by J. A. Van Loon et al., Biochem. Genet., 20, 637 (1982). The two isoforms were separated by DEAE ion exchange chromatography, and the Peak I enzyme was then purified by gel filtration chromatography performed with Sephadex G-100 superfine as described by J. A. Van Loon et al., cited above. In some experiments, hydroxylapatite chromatography performed as described by J. A. Van Loon et al., in Biochem. Pharmacol., 44, 775 (1992) was added as a third purification step.
(§2) TPMT activity in renal tissue was measured by the method of R. M. Weinshilboum et al., in Clin. Chim. Acta, 85, 323 (1978) as modified by L. C. Woodson et al., Biochem. Pharmacol., 32, 819 (1983) to assay the enzyme in human kidney preparations. […] Ado-Met as the methyl donor. Assay conditions for the measurement of TPMT in T84 human colon carcinoma cells and in COS-1 cells were identical with those used to measure the enzyme activity in human renal tissue. One unit of TPMT activity represented the formation of 1 nmol of 6-MMP per hr of incubation at 37° C.
as §1

Data set [3] addresses T3, T84 cell TPMT (Homo sapiens, UniProt P51580).
T3 construct: Cytosol from T84 cells did contain TPMT enzymatic activity; host or cells: T84 human colon carcinoma cells
T3 sequence (P51580 1-245): T1 sequence (P51580 1-245)
In words: Panel of methyltransferase inhibitors and ions, T84 cell 100,000×g supernatant. The class given is biochemical. The procedure: as §2
T84 human colon carcinoma cells (American Type Culture Collection, Rockville, Md.) were grown to confluence in an equal volume mixture of Dulbecco's modified Eagle's medium (DMEM) and Ham's F12 media with 5% fetal calf serum. The cells were then harvested, cell pellets were washed in phosphate buffered saline (PBS), and the pellets were homogenized for 30 sec in 1 ml of 5 mM potassium phosphate buffer, pH 7.5, with a Polytron homogenizer. Homogenates of the cells were centrifuged at 100,000×g for 1 hr at 4° C., and the supernatant was used to assay TPMT activity and to determine selected biochemical properties of the enzyme.
as §1

Data set [4] deals with T4, TPMT, human kidney 100,000×g supernatant (Homo sapiens, UniProt P51580).
T4 construct: renal tissue was homogenized in 5 mM potassium phosphate buffer, pH 7.5, with a Polytron homogenizer, and a 100,000×g supernatant was prepared; from tissue; host or cells: human kidney (renal tissue)
T4 sequence (P51580 1-245): T1 sequence (P51580 1-245)
In words: Panel of methyltransferase inhibitors and ions, human kidney 100,000×g supernatant. The class given is biochemical. Here is the method: Renal tissue was obtained either during autopsy or from patients undergoing clinically indicated nephrectomies. Hepatic tissue was obtained from patients who underwent clinically indicated partial hepatectomies for the removal of primary or metastatic hepatic tumors. All tissue was obtained under guidelines approved by the Mayo Clinic Institutional Review Board. Macroscopically normal tissue was stored at -80° C., conditions under which TPMT activity is stable (C. L. Szumlanski et al., Pharmacogenetics, 2, 148 (1992); J. A. Van Loon et al., Drug Met. Disposit., 18, 632 (1990)). Prior to enzyme purification, renal tissue was homogenized in 5 mM potassium phosphate buffer, pH 7.5, with a Polytron homogenizer, and a 100,000×g supernatant was prepared as described by L. C. Woodson et al., Biochem. Pharmacol., 32, 819 (1983). Amino acid sequence information was obtained with TPMT purified from human renal tissue--a tissue with a high specific activity for the enzyme.
as §2, §1

Data set [5] concerns the target T5, TPMT expressed in COS-1 cells transfected with T84 TPMT cDNA (Homo sapiens, UniProt P51580).
T5 construct: digested with SstI to excise the coding region, the 5'-untranslated region and a portion (ca. 600 nucleotides) of the 3'-untranslated region; expressed in transfected cells; host or cells: COS-1 (simian), vector P91023(B)
T5 sequence (P51580 1-245): T1 sequence (P51580 1-245)
The data set is described as follows: Panel of methyltransferase inhibitors and ions, COS-1 cells transfected with T84 TPMT cDNA. Type of data set: biochemical. The procedure:
TPMT activity in renal tissue was measured by the method of R. M. Weinshilboum et al., in Clin. Chim. Acta, 85, 323 (1978) as modified by L. C. Woodson et al., Biochem. Pharmacol., 32, 819 (1983) to assay the enzyme in human kidney preparations. […] Assay conditions for the measurement of TPMT in T84 human colon carcinoma cells and in COS-1 cells were identical with those used to measure the enzyme activity in human renal tissue. One unit of TPMT activity represented the formation of 1 nmol of 6-MMP per hr of incubation at 37° C.
Simian COS-1 cells were then plated in 100-mm dishes at a density of 1.5-1.8×10^6 cells/dish in DMEM with 10% fetal calf serum, and were allowed to grow overnight. Three dishes of cells were used for each transfection. Purified "sense" plasmid vector (0.5 μg) was mixed with DEAE-dextran and DMEM, and the mixture was added to the cell culture dishes, following the procedures of J. H. McCutchan et al., J. Natl. Cancer Inst., 41, 351 (1988) and R. J. Kaufman et al., Mol. Cell. Biol., 9, 946 (1989). Control cells were treated with no DNA, with expression vector alone, or with constructs that contained the cDNA clone in an antisense orientation. After 1 hr, the DNA-DEAE-dextran solution was replaced for 2 min with DMEM that contained 10% dimethylsulfoxide, followed by incubation for 2 hr in 0.1 mM chloroquine in DMEM following the procedure of H. Luthman et al., Nucl. Acids Res., 11, 1295 (1983). Cells were then grown for 40-42 hr in DMEM with 10% fetal calf serum. The cells from each transfection were harvested and pooled, cell pellets were washed in 5 ml of PBS, and the cell pellets were homogenized for 30 sec in 2 ml of 5 mM potassium phosphate buffer, pH 7.5. Homogenates were centrifuged at 15,000×g for 15 min at 4° C., supernatants from that step were centrifuged at 100,000×g for 1 hr at 4° C., and 0.25 μl aliquots of 100,000×g supernatant preparations were then assayed for transient expression of TPMT enzymatic activity.

The target of data set [6] is T6, human kidney TPMT (Homo sapiens, UniProt P51580).
T6 construct: to assay the enzyme in human kidney preparations; host or cells: human kidney
T6 sequence (P51580 1-245): T1 sequence (P51580 1-245)
Conditions: read-out: Apparent Km value for Ado-Met; cited from earlier work.

Data set [7] deals with histamine N-methyltransferase (HNMT). Particulars: cited from earlier work.
Data set [8] has as its system catechol O-methyltransferase (COMT). Particulars: cited from earlier work.
The subject of data set [9] is thiol methyltransferase (TMT). Conditions: cited from earlier work.
In data set [10] the test system is patients with genetically low or undetectable RBC TPMT activity. Conditions: patients lacking or with low TPMT activity; cited from earlier work.
Data set [11] concerns TPMT. Particulars: cited from earlier work.
The mark [12] stands for this setting: read-out: Activity Remaining, %.

SMILES strings stand for the structures. Entries after “also recorded” stand apart in the source; their conditions may differ. Like-named read-outs stand apart in the source and are kept apart here.

The remaining activity is the signal under treatment as a percentage of the control signal. Turning to `CSc1ncnc2nc[nH]c12` [6-MMP, 6-methylmercaptopurine], the “effect on TPMT activity (in words)” value in data set [1] is on record as “inhibited”. The remaining activity at 5000 µM stood at 30% in data set [2] (human kidney TPMT Peak I, 5 mM); 27% in data set [3] (T84 cell 100,000×g supernatant, 5 mM); 26% in [4] (human kidney 100,000×g supernatant, 5 mM); 29% in data set [5] (COS-1 cells transfected with T84 TPMT cDNA, 5 mM).

With `Nc1ncnc2c1ncn2[C@@H]1O[C@H](CSCC[C@H](N)C(=O)O)[C@@H](O)[C@H]1O` [Ado-Hcy, S-adenosyl-L-homocysteine], in [1], the “effect on TPMT activity (in words)” value was “inhibited”. For the same compound, the remaining activity at 100 µM in data set [2] (setting [12]), in data set [3] (setting [12]), in data set [4] (setting [12]) and in data set [5] (setting [12]) was 5% throughout.

Usually Km stands for the concentration of substrate that gives half-maximal velocity. On to `C[S+](CC[C@H](N)C(=O)O)C[C@H]1O[C@@H](n2cnc3c(N)ncnc32)[C@H](O)[C@@H]1O` (stereo partly drawn) [Ado-Met, S-adenosyl-L-methionine], for which the Km in [6] is 2.7 µM.

Take `CCN(CC)Cc1cc(Nc2ccnc3cc(Cl)ccc23)ccc1O` [Amodiaquine]: the “effect on TPMT activity (in words)” value in [1] is “not affected”. Further, the remaining activity at 1000 µM was determined as 90% in data set [2] (human kidney TPMT Peak I, 1 mM, read-out: Activity Remaining, %); 96% in [3] (T84 cell 100,000×g supernatant, 1 mM, read-out: Activity Remaining, %); 97% in data set [4] (human kidney 100,000×g supernatant, 1 mM, read-out: Activity Remaining, %); 95% in [5] (COS-1 cells transfected with T84 TPMT cDNA, 1 mM, read-out: Activity Remaining, %). Further, the “inhibition of histamine N-methyltransferase (in words)” value in data set [7] is “an inhibitor of histamine N-methyltransferase”.

On to `[Ca+2].[Cl-].[Cl-]` [CaCl2], for which the “effect on TPMT activity (in words)” value in [1] is recorded as “not affected”. Besides, the “Activity Remaining, %” value in data set [2] (human kidney TPMT Peak I, 1 mM) is reported as 97%; in data set [3] (T84 cell 100,000×g supernatant, 1 mM) it was 95%; in [4] (human kidney 100,000×g supernatant, 1 mM), 96%; in data set [5] (COS-1 cells transfected with T84 TPMT cDNA, 1 mM), 96%. In addition, in data set [8], the “inhibition of catechol O-methyltransferase (in words)” value is “an inhibitor of catechol O-methyltransferase”.

For `CC(N)c1cccc(Cl)c1Cl` (stereo not drawn) [DCMB, 2,3-dichloro-α-methylbenzylamine], the “effect on TPMT activity (in words)” value in [1] is given as “not affected”. For the same compound, the remaining activity at 1000 µM in [2] (setting [12]) is 95%; in [3] (setting [12]), 99%; in data set [4] (setting [12]), 95%; in data set [5] (setting [12]) it was 95%. Besides, the “inhibition of thiol methyltransferase (in words)” value in data set [9] is listed as “inhibitors of thiol methyltransferase”.

As to `CCCC(C(=O)OCCN(CC)CC)(c1ccccc1)c1ccccc1` [SKF-525A], in data set [1], the “effect on TPMT activity (in words)” value is recorded as “not affected”. In addition, the remaining activity at 500 µM is 98% in data set [2] (human kidney TPMT Peak I, 0.5 mM); 102% in [3] (T84 cell 100,000×g supernatant, 0.5 mM); 107% in data set [4] (human kidney 100,000×g supernatant, 0.5 mM); 101% in data set [5] (COS-1 cells transfected with T84 TPMT cDNA, 0.5 mM). In data set [9], the “inhibition of thiol methyltransferase (in words)” value is reported as “inhibitors of thiol methyltransferase”.

Consider `Cn1cnc([N+](=O)[O-])c1Sc1ncnc2nc[nH]c12` [azathioprine], for which the “risk of myelosuppression (in words)” value in data set [10] was “even more at risk for the occurrence of severe myelosuppression; also recorded: greatly increased risk for the development of life-threatening thiopurine-induced myelosuppression”. For the same compound, the “substrate for TPMT (in words)” value in data set [11] is given as “substrates for TPMT”.

Values taken from patent US5470737A, “Stably-transformed cells expressing human thiopurine methyltransferase” (priority 1994, dated 1995).
